Data published in US20190390161A1, “CULTURE MEDIUM COMPRISING OLIGOPEPTIDES” (Evonik Degussa GmbH, priority 2017, published 2019).
Marks after values point to notes of the source that are not given here. Bridge positions count the residues as written; N and C are the ends. Peptide text beside a SMILES is read from it. I, II: the chains in the order shown.

Assays:
[1] = tested on: antibody producing Chinese Hamster Ovary (CHO) cells (Subclone DG44); assay: Antibody production (final antibody titer) in TC-42 media; type: cell-based; details: compared with cells cultured in reference media; 24 days (FIG. 4)
From the text: FIG. 4 depicts the final antibody titer with TC-42 media obtained with oligopeptides according to the invention.
(§1) The influence of the L-lysine dipeptides on the growth of antibody producing Chinese Hamster Ovary (CHO) cells (Subclone DG44; Life Technologies Cooperation, Carslbad, USA) in comparison to media containing either the corresponding free amino acids or the corresponding L-alanine dipeptides was investigated. For this purpose, the cells were cultivated in a TC-42 media produced by Xell AG, Bielefeld, Germany in which the amino acids provided within the experiments by dipeptides were lacking. The concentrations of these amino acids were adjusted in such a way that, taking into account a complete hydrolysis of the dipeptides into the amino acids, the concentration of all amino acids were the same in all media tested within this experiment.
Additionally, the effect on antibody production was analysed comparing cells cultured in reference media and cells growing in a media containing the dipeptides bis-alanyl-L-cystine or […] for 24 days (FIG. 4).

[2] = tested on: antibody producing Chinese Hamster Ovary (CHO) cells (Subclone DG44); assay: Experiment 1: cell growth (VCD) in TC-42 media, cysteine/cystine or leucine replaced by dipeptides; type: cell-based; parameters: Viable cell densities (VCD) / maximum cell densities (max. VCD): unit not given here; details: for maximum cell densities (max. VCD) / Viable cell densities (VCD): TC-42 media of table 2; for cell growth performance compared with reference medium (FIG. 1): same molar amount of cysteine and cystine in the form of dipeptides
From the text: as §1, with “experiment. […] Experiment 1: Comparison of the Cell Growths Obtained with TC-42 media in which L-cysteine/L-cystine is replaced by bis-L-alanyl-L-cystine, bis-L-prolyl-L-cystine or bis-L-lysyl-L-cystine and L-leucine is replaced by […] For this experiment a TC-42 media produced by Xell AG, Bielefeld, Germany in which […]-cystine and L-leucine were deliberately left out of the initial formulation. […] [table]” for “experiment.”

[3] = Solubility found for Lys-Xxx dipeptides; details: for Solubility Lys-Xxx found: as hydrochloride or as acetate (footnotes 6, 7)
[4] = target: plasmin (Homo sapiens, UniProt P00747); details: Chemical & Pharmaceutical Bulletin 22, 2680 (1974); cited from earlier work
[5] = cited from earlier work

plasmin, sequence (P00747 581-810 limits assumed, species assumed): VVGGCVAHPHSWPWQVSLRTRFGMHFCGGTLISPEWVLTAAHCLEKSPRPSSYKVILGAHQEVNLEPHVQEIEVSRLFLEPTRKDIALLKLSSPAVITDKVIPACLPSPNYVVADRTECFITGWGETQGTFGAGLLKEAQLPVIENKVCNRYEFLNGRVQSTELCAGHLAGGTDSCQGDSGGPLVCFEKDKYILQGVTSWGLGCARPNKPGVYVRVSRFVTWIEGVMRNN
plasmin, sequence (P00747 97-580 partner limits assumed, species assumed): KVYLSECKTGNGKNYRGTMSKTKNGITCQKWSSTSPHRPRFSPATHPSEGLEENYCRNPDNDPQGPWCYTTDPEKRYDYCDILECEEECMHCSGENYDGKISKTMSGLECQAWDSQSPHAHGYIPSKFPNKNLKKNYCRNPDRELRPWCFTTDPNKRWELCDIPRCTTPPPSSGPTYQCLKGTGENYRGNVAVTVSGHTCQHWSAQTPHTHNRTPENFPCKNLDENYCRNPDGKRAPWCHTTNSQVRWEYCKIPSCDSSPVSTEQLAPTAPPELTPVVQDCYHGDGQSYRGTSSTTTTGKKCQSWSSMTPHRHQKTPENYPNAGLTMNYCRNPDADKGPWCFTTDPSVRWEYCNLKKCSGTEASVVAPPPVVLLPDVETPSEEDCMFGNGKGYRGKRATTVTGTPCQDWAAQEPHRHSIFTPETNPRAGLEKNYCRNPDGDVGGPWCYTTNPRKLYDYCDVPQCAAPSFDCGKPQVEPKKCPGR

Compound | maximum cell densities (max. VCD) [2] | Viable cell densities (VCD) ([2]; Time 0.0) | Viable cell densities (VCD) ([2]; Time 0.7) | Viable cell densities (VCD) ([2]; Time 2.0) | Viable cell densities (VCD) ([2]; Time 2.7) | Viable cell densities (VCD) ([2]; Time 3.6) | Viable cell densities (VCD) ([2]; Time 3.7) | Viable cell densities (VCD) ([2]; Time 4.7) | Viable cell densities (VCD) ([2]; Time 5.8) | Viable cell densities (VCD) ([2]; Time 6.7) | Viable cell densities (VCD) ([2]; Time 6.8) | Viable cell densities (VCD) ([2]; Time 7.8) | Viable cell densities (VCD) ([2]; Time 8.7) | Viable cell densities (VCD) ([2]; Time 9.7) | Viable cell densities (VCD) ([2]; Time 10.6) | Viable cell densities (VCD) ([2]; Time 11.6) | Viable cell densities (VCD) ([2]; Time 12.8) | Viable cell densities (VCD) ([2]; Time 13.6) | Viable cell densities (VCD) ([2]; Time 15.0) | Viable cell densities (VCD) ([2]; Time 15.9) | also measured
NCCCC[C@H](N)C(=O)N[C@@H](CSSC[C@H](NC(=O)[C@@H](N)CCCCN)C(=O)O)C(=O)O [Lys2-Cyss, Bis-L-lysyl-L-cystine × 4HCl] (I: H-Lys-Cys-OH / II: H-Lys-Cys-OH; disulfide I:2-II:2) | 14.16 | 0.31 | 0.39 | 0.54 | 0.83 | 1.02 | 0.39 | 0.62 | 1.18 | 1.98 | 0.30 | 0.43 | 0.98 | 1.82 | 2.88 | 4.75 | 6.68 | 9.20 | 11.93 | 13.66 | antibody production increased by [1]: ~50%; Viable cell densities (VCD) ([2]; Time 16.7): 13.41; Viable cell densities (VCD) ([2]; Time 17.8): 14.16; Viable cell densities (VCD) ([2]; Time 18.7): 14.15; cell growth performance compared with reference medium (FIG. 1) [2]: performance comparable to bis-alanyl-L-cystine; Solubility Lys-Xxx found [3]: >500 ^6) g/1000 g solution; solubility found ([3]; hydrochloride): > 50 % (w/w)
CC(=O)O.CC(C)C[C@H](NC(=O)[C@@H](N)CCCCN)C(=O)O [Lys-Leu, L-Lysyl-L-leucine acetat] (H-Lys-Leu-OH) | 12.43 | 0.33 | 0.39 | 0.59 | 0.81 | 0.92 | 0.34 | 0.56 | 0.94 | 1.40 | 0.30 | 0.45 | 0.79 | 1.24 | 1.81 | 2.38 | 3.12 | 3.66 | 4.52 | 5.47 | Viable cell densities (VCD) ([2]; Time 16.7): 6.10; Viable cell densities (VCD) ([2]; Time 17.8): 6.03; Viable cell densities (VCD) ([2]; Time 18.7): 7.23; Viable cell densities (VCD) ([2]; Time 19.9): 10.51; Viable cell densities (VCD) ([2]; Time 20.7): 12.43; Viable cell densities (VCD) ([2]; Time 21.8): 12.15; Viable cell densities (VCD) ([2]; Time 22.8): 11.82; cleavage (hydrolysis) by plasmin [4]: none of these peptides were cleaved; Solubility Lys-Xxx found [3]: >330 ^7) g/1000 g solution
Bis-L-alanyl-L-cystine [Ala2-Cyss, reference compound] | 15.06 | 0.26 | 0.42 | 0.47 | 0.67 | 0.84 | 0.36 | 0.71 | 1.52 | 2.34 | 0.32 | 0.48 | 1.06 | 1.79 | 3.19 | 4.89 | 7.65 | 10.01 | 11.62 | 15.06 | antibody production increased by [1]: at least 30%; Solubility Ala-Xxx ([5]; Degussa product brochure, cystine value WO 2011/133902): 8.7 ^2) g/1000 g solution; solubility ([5]; prior art values, background): 15.3 g/ltr; Viable cell densities (VCD) ([2]; Time 16.7): 14.38; Viable cell densities (VCD) ([2]; Time 17.8): 14.05; Viable cell densities (VCD) ([2]; Time 18.7): 14.28; cell growth performance compared with reference medium (FIG. 1) [2]: the cells were able to utilize the peptides for growth
Lys-Lys [reference compound] |  |  |  |  |  |  |  |  |  |  |  |  |  |  |  |  |  |  |  |  | cleavage (hydrolysis) by plasmin [4]: none of these peptides were cleaved
